# Key:
# Streptococcus pneumoniae = test: Acute lethal infection in mice; type: in vivo
# Experimental: (§1) The antibacterial efficacy of AA-896-A1 in vivo against acute lethal infection in mice is established by infecting mice with Staphylococcus aureus Smith or Streptococcus pneumoniae. The mice are treated with AA-896-A1.
# [1] = system: Staphylococcus aureus Smith; test: Acute lethal infection in mice; type: in vivo
# Experimental: as §1
# CNS GC 4538 = test: Broth dilution MIC; type: cell-based; settings: Mueller-Hinton broth, 18 hours at 35° C.
# Outline: (§2)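 Mueller-Hinton broth, serial compound dilutions, bacterial inoculum; 18 h at 35° C; MIC = lowest concentration with no growth.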
# CNS GC 4547 = test: Broth dilution MIC; type: cell-based; settings: Mueller-Hinton broth, 18 hours at 35° C.
# Outline: as §2
# P. aeruginosa GC 4532 = test: Broth dilution MIC; type: cell-based; settings: Mueller-Hinton broth, 18 hours at 35° C.
# Outline: as §2
# K. pneumoniae GC 4534 = test: Broth dilution MIC; type: cell-based; settings: Mueller-Hinton broth, 18 hours at 35° C.
# Outline: as §2
# S. aureus GC 1131 = test: Broth dilution MIC; type: cell-based; settings: Mueller-Hinton broth, 18 hours at 35° C.
# Outline: as §2
# S. aureus GC 2216 = test: Broth dilution MIC; type: cell-based; settings: Mueller-Hinton broth, 18 hours at 35° C.
# Outline: as §2
# E. coli GC 4560 = test: Broth dilution MIC; type: cell-based; settings: Mueller-Hinton broth, 18 hours at 35° C.
# Outline: as §2
# P. rettgeri GC 4530 = test: Broth dilution MIC; type: cell-based; settings: Mueller-Hinton broth, 18 hours at 35° C.
# Outline: as §2
# M. morganii GC 4531 = test: Broth dilution MIC; type: cell-based; settings: Mueller-Hinton broth, 18 hours at 35° C.
# Outline: as §2
# S. aureus GC 4536 = test: Broth dilution MIC; type: cell-based; settings: Mueller-Hinton broth, 18 hours at 35° C.
# Outline: as §2
# E. faecalis GC 4555 = test: Broth dilution MIC; type: cell-based; settings: Mueller-Hinton broth, 18 hours at 35° C.
# Outline: as §2
# E. coli GC 2203 = test: Broth dilution MIC; type: cell-based; settings: Mueller-Hinton broth, 18 hours at 35° C.
# Outline: as §2
# E. coli GC 4559 = test: Broth dilution MIC; type: cell-based; settings: Mueller-Hinton broth, 18 hours at 35° C.
# Outline: as §2
# P. aeruginosa GC 2214 = test: Broth dilution MIC; type: cell-based; settings: Mueller-Hinton broth, 18 hours at 35° C.
# Outline: as §2
# E. faecalis GC 242 = test: Broth dilution MIC; type: cell-based; settings: Mueller-Hinton broth, 18 hours at 35° C.
# Outline: as §2
# E. coli GC 3226 = test: Broth dilution MIC; type: cell-based; settings: Mueller-Hinton broth, 18 hours at 35° C.
# Outline: as §2
# S. marcescens GC 4077 = test: Broth dilution MIC; type: cell-based; settings: Mueller-Hinton broth, 18 hours at 35° C.
# Outline: as §2
# E. cloacae GC 3783 = test: Broth dilution MIC; type: cell-based; settings: Mueller-Hinton broth, 18 hours at 35° C.
# Outline: as §2
# CNS GC 4537 = test: Broth dilution MIC; type: cell-based; settings: Mueller-Hinton broth, 18 hours at 35° C.
# Outline: as §2
# E. faecalis GC 842 = test: Broth dilution MIC; type: cell-based; settings: Mueller-Hinton broth, 18 hours at 35° C.
# Outline: as §2
substance,measurement,setting,value
"5-O-[5-Amino-5-deoxy-2-O-methyl-β-D-ribofuranosyl]-6-[[3-[3-[[13-(carbamimidoylhydroxy-amino)tridecanoyl]oxy]-2-[2-[[(1-carboxy-2-methylpropyl)carbamoyl]amino]-2-(hexahydro-2-iminopyrimidin-4-yl)acetamido]-4-methylpentanamido]propyl]amino]-1,6-dideoxy-1-(3,4-dihydro-2,4-dioxopyrimidin-1(2H)-yl)-β-D-heptofuranuronic acid [AA-896-A1]",ED50 range (95% confidence limit),Streptococcus pneumoniae,8.0 to 16.0 mg/kg
same,ED50 range (95% confidence limit),[1],0.83 to 1.46 mg/kg
same,Antimicrobial Activity (MIC),CNS GC 4538,1 µg/mL
same,Antimicrobial Activity (MIC),CNS GC 4547,4 µg/mL
same,Antimicrobial Activity (MIC),P. aeruginosa GC 4532,32 µg/mL
same,Antimicrobial Activity (MIC),K. pneumoniae GC 4534,>32 µg/mL
same,Antimicrobial Activity (MIC),S. aureus GC 1131,4 µg/mL
same,Antimicrobial Activity (MIC),S. aureus GC 2216,8 µg/mL
same,Antimicrobial Activity (MIC),E. coli GC 4560,<=0.03 μg/ml
same,Antimicrobial Activity (MIC),P. rettgeri GC 4530,>32 µg/mL
same,Antimicrobial Activity (MIC),M. morganii GC 4531,>32 µg/mL
same,Antimicrobial Activity (MIC),S. aureus GC 4536,4 µg/mL
same,Antimicrobial Activity (MIC),E. faecalis GC 4555,16 µg/mL
same,Antimicrobial Activity (MIC),E. coli GC 2203,16 µg/mL
same,Antimicrobial Activity (MIC),E. coli GC 4559,32 µg/mL
same,Antimicrobial Activity (MIC),P. aeruginosa GC 2214,16 µg/mL
same,Antimicrobial Activity (MIC),E. faecalis GC 242,32 µg/mL
same,Antimicrobial Activity (MIC),E. coli GC 3226,8 µg/mL
same,Antimicrobial Activity (MIC),S. marcescens GC 4077,>32 µg/mL
same,Antimicrobial Activity (MIC),E. cloacae GC 3783,0.5 µg/mL
same,Antimicrobial Activity (MIC),CNS GC 4537,2 µg/mL
same,Antimicrobial Activity (MIC),E. faecalis GC 842,32 µg/mL

# Reference: US7078195B2, “Antibiotics AA-896” (Wyeth Holdings Corporation, priority 2001, dated 2006)
